Molecular target: T1, USP28 (His-tagged USP28-FL-mammalian) (Homo sapiens, UniProt Q96RU2)
T1 construct: Expression of USP28 (1-1077)-TEV-6*His (pTT5 vector); made in house; host or cells: Expi293f cells (pTT5 vector)
T1 sequence (Q96RU2 1-1077): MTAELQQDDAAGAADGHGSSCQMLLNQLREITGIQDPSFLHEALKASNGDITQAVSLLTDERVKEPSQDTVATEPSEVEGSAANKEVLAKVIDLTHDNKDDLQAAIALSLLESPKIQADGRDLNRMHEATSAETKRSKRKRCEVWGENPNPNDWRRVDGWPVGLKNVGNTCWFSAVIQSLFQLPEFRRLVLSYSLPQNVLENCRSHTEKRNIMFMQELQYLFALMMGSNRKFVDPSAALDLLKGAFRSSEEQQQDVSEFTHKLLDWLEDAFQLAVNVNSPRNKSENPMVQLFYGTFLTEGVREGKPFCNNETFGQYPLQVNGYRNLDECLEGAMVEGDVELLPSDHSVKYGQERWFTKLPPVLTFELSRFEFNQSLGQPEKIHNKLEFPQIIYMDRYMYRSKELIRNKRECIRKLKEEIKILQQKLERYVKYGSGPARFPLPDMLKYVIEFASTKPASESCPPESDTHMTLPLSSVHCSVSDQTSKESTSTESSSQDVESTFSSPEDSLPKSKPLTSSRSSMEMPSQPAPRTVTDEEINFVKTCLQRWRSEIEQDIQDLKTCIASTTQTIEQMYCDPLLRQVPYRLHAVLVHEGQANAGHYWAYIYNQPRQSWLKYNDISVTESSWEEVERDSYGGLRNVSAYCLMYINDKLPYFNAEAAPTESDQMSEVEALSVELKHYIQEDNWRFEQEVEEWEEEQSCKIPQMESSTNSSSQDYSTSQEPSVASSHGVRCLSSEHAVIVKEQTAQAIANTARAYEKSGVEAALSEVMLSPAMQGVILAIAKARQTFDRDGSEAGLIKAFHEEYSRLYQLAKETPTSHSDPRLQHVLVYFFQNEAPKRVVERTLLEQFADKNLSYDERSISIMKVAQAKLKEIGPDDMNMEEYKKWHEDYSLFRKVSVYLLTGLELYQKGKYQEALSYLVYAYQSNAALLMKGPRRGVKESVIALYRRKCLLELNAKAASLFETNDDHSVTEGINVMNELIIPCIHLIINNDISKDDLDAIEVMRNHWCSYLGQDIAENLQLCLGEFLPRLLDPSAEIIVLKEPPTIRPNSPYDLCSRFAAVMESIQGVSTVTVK
Test: Ubiquitin-Rhodamine 110 Assay for USP28 Activity, Example A-1(a)
Assay type: biochemical
Settings: Ubiquitin-Rhodamine 110 assay, Example A-1(a); read-out: USP28 A-1(a) IC50 range
Procedure, shortened: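 Full-length His-tagged human USP28 (1-1077, Expi293f-expressed), […], with 25 nM Ub-Rh110 (<<Km) in pH 8.0 Tris buffer with BME, BGG, Triton X-100. 10-point dilutions (25 μM-1.3 nM), 45 min at room temperature, citric acid stop, fluorescence 485/535 nm; IC50 by 4-parameter fit.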

Which IC50 does the source give for `Cc1ccc2c(N)c(C(=O)N[C@H]3COc4cc(N5C[C@@H](N)[C@@H](F)C5)ccc4C3)sc2n1` (single isomer, unassigned) [Example 3-5] here?
The IC50 was 1 to 50 nM.

Which IC50 does the source give for `Cc1ccc2c(N)c(C(=O)N[C@H]3COc4cc(N5C[C@@H](F)[C@@H](N)C5)ccc4C3)sc2n1` (single isomer, unassigned) [Example 3-6] here?
Its IC50 is 1 to 50 nM.

For `COC[C@@H]1CN(c2nc3c(cc2F)C[C@H](NC(=O)c2sc4nc(C)ccc4c2N)CC3)C[C@@H]1N` (single isomer, unassigned) [Example 302], which IC50 is on record?
Its IC50 is 50 to 200 nM.

For `COC[C@H]1CN(c2nc3c(cc2F)C[C@H](NC(=O)c2sc4nc(C)ccc4c2N)CC3)C[C@H]1N` (single isomer, unassigned) [Example 303], which IC50 is on record?
The IC50 was 200 to 2000 nM.

`CO[C@H]1CCN(c2ccc3c(n2)CC[C@H](NC(=O)c2sc4nc(C)ccc4c2N)C3)C[C@@H]1N` (single isomer, unassigned) [Example 315] was tested. Which IC50 did it give?
The IC50 was 50 to 200 nM.

Which IC50 does the source give for `CO[C@@H]1CCN(c2ccc3c(n2)CC[C@H](NC(=O)c2sc4nc(C)ccc4c2N)C3)C[C@H]1N` (single isomer, unassigned) [Example 316] here?
Its IC50 is 50 to 200 nM.

How did the IC50 turn out when `CCOC1CN(c2ccc3c(c2)OC[C@H](NC(=O)c2sc4nc(C)cc(C)c4c2N)C3)C[C@@H]1N` (stereo in doubt) [Example 323, 3-amino-N-[(3R)-7-[(3S,4R)-3-amino-4-ethoxypyrrolidin-1-yl]-3,4-dihydro-2H-1-benzopyran-3-yl]-4,6-dimethylthieno[2,3-b]pyridine-2-carboxamide] was run?
Its IC50 is 1 to 50 nM.

For `COC[C@@]1(C)CN(c2ccc3c(n2)CC[C@H](NC(=O)c2sc4nc(C)ccc4c2N)C3)CC1N` (stereo in doubt) [Example 343, 3-amino-N-[(6S)-2-[(3S,4S)-4-amino-3-(methoxymethyl)-3-methylpyrrolidin-1-yl]-5,6,7,8-tetrahydroquinolin-6-yl]-6-methylthieno[2,3-b]pyridine-2-carboxamide], which IC50 is on record?
Its IC50 is 50 to 200 nM.

For `COC[C@H]1C[C@H](N)CN1c1ccc2c(c1)OC[C@H](NC(=O)c1sc3nc(C)ccc3c1N)C2` [Example 261, 3-amino-N-[(3R)-7-[(2R,4S)-4-amino-2-(methoxymethyl)pyrrolidin-1-yl]-3,4-dihydro-2H-1-benzopyran-3-yl]-6-methylthieno[2,3-b]pyridine-2-carboxamide], which IC50 is on record?
Its IC50 is 1 to 50 nM.

With `COC[C@H]1C[C@@H](N)CN1c1ccc2c(c1)OC[C@H](NC(=O)c1sc3nc(C)ccc3c1N)C2` [Example 262, 3-amino-N-[(3R)-7-[(2R,4R)-4-amino-2-(methoxymethyl)pyrrolidin-1-yl]-3,4-dihydro-2H-1-benzopyran-3-yl]-6-methylthieno[2,3-b]pyridine-2-carboxamide] as the compound, how does the IC50 read?
The IC50 was 1 to 50 nM.

`COC[C@@H]1C[C@H](N)CN1c1ccc2c(c1)OC[C@H](NC(=O)c1sc3nc(C)ccc3c1N)C2` [Example 263, 3-amino-N-[(3R)-7-[(2S,4S)-4-amino-2-(methoxymethyl)pyrrolidin-1-yl]-3,4-dihydro-2H-1-benzopyran-3-yl]-6-methylthieno[2,3-b]pyridine-2-carboxamide] was tested. Which IC50 did it give?
The IC50 was 1 to 50 nM.

`N#Cc1c(N2CC3CCC(C2)N3)cc2c(c1F)C[C@@H](NC(=O)c1cnc3c(c1)[C@@H]1C[C@@H]1CN3)CO2` [Example 264, (6aS,7aR)-N-[(3R)-6-cyano-7-{3,8-diazabicyclo[3.2.1]octan-3-yl}-5-fluoro-3,4-dihydro-2H-1-benzopyran-3-yl]-5H,6H,6aH,7H,7aH-cyclopropa[c]1,8-naphthyridine-2-carboxamide] was tested. Which IC50 did it give?
Its IC50 is 1 to 50 nM.

How did the IC50 turn out when `N#Cc1c(N2CC3CCC(C2)N3)cc2c(c1F)C[C@@H](NC(=O)c1cnc3c(c1)[C@H]1C[C@H]1CN3)CO2` [Example 265, (6aR,7aS)-N-[(3R)-6-cyano-7-{3,8-diazabicyclo[3.2.1]octan-3-yl}-5-fluoro-3,4-dihydro-2H-1-benzopyran-3-yl]-5H,6H,6aH,7H,7aH-cyclopropa[c]1,8-naphthyridine-2-carboxamide] was run?
Its IC50 is 50 to 200 nM.

With `CO[C@H]1CN(c2ccc3c(n2)CC[C@H](NC(=O)c2sc4nc(C)cnc4c2N)C3)C[C@@H]1NC(C)=O` [Example 266, 7-amino-N-[(6S)-2-[(3S,4S)-3-acetamido-4-methoxypyrrolidin-1-yl]-5,6,7,8-tetrahydroquinolin-6-yl]-3-methylthieno[2,3-b]pyrazine-6-carboxamide] as the compound, how does the IC50 read?
Its IC50 is 200 to 2000 nM.

`CCO[C@@H]1CN(c2ccc3c(c2)CC[C@H](NC(=O)c2sc4nc(C)ccc4c2N)C3)C[C@@H]1N` [Example 267, 3-amino-N-[(2S)-6-[(3S,4R)-3-amino-4-ethoxypyrrolidin-1-yl]-1,2,3,4-tetrahydronaphthalen-2-yl]-6-methylthieno[2,3-b]pyridine-2-carboxamide] was tested. Which IC50 did it give?
Its IC50 is 50 to 200 nM.

For `CCO[C@H]1CN(c2ccc3c(c2)CC[C@H](NC(=O)c2sc4nc(C)ccc4c2N)C3)C[C@H]1N` [Example 268, 3-amino-N-[(2S)-6-[(3R,4S)-3-amino-4-ethoxypyrrolidin-1-yl]-1,2,3,4-tetrahydronaphthalen-2-yl]-6-methylthieno[2,3-b]pyridine-2-carboxamide], which IC50 is on record?
The IC50 was 50 to 200 nM.

For `CO[C@@H]1CN(c2ccc3c(n2)CC[C@H](NC(=O)c2sc4nc(C)ccc4c2N)C3)C[C@@H]1N` [Example 269, 3-amino-N-[(6S)-2-[(3S,4R)-3-amino-4-methoxypyrrolidin-1-yl]-5,6,7,8-tetrahydroquinolin-6-yl]-6-methylthieno[2,3-b]pyridine-2-carboxamide], which IC50 is on record?
The IC50 was 50 to 200 nM.

For `CO[C@H]1CN(c2ccc3c(n2)CC[C@H](NC(=O)c2sc4nc(C)ccc4c2N)C3)C[C@H]1N` [Example 270, 3-amino-N-[(6S)-2-[(3R,4S)-3-amino-4-methoxypyrrolidin-1-yl]-5,6,7,8-tetrahydroquinolin-6-yl]-6-methylthieno[2,3-b]pyridine-2-carboxamide], which IC50 is on record?
The IC50 was 50 to 200 nM.

For `COC[C@@H]1CN(c2ccc3c(c2)OC[C@H](NC(=O)c2sc4nc(C)cc(C)c4c2N)C3)C[C@@H]1N` [Example 275, 3-amino-N-[(3R)-7-[(3R,4R)-3-amino-4-(methoxymethyl)pyrrolidin-1-yl]-3,4-dihydro-2H-1-benzopyran-3-yl]-4,6-dimethylthieno[2,3-b]pyridine-2-carboxamide], which IC50 is on record?
Its IC50 is 1 to 50 nM.

With `COC[C@H]1CN(c2ccc3c(c2)OC[C@H](NC(=O)c2sc4nc(C)cc(C)c4c2N)C3)C[C@H]1N` [Example 276, 3-amino-N-[(3R)-7-[(3S,4S)-3-amino-4-(methoxymethyl)pyrrolidin-1-yl]-3,4-dihydro-2H-1-benzopyran-3-yl]-4,6-dimethylthieno[2,3-b]pyridine-2-carboxamide] as the compound, how does the IC50 read?
The IC50 was 1 to 50 nM.

With `COC[C@@H]1CN(c2cc(F)c3c(c2F)OC[C@H](NC(=O)c2sc4nc(C)cc(C)c4c2N)C3)C[C@@H]1N` [Example 277, 3-amino-N-[(3R)-7-[(3R,4R)-3-amino-4-(methoxymethyl)pyrrolidin-1-yl]-5,8-difluoro-3,4-dihydro-2H-1-benzopyran-3-yl]-4,6-dimethylthieno[2,3-b]pyridine-2-carboxamide] as the compound, how does the IC50 read?
The IC50 was 1 to 50 nM.

With `COC[C@H]1CN(c2cc(F)c3c(c2F)OC[C@H](NC(=O)c2sc4nc(C)cc(C)c4c2N)C3)C[C@H]1N` [Example 278, 3-amino-N-[(3R)-7-[(3S,4S)-3-amino-4-(methoxymethyl)pyrrolidin-1-yl]-5,8-difluoro-3,4-dihydro-2H-1-benzopyran-3-yl]-4,6-dimethylthieno[2,3-b]pyridine-2-carboxamide] as the compound, how does the IC50 read?
The IC50 was 1 to 50 nM.

With `CO[C@@]1(C)CN(c2ccc3c(n2)CC[C@H](NC(=O)c2sc4nc(C)cnc4c2N)C3)C[C@@H]1N` [Example 279, 7-amino-N-[(6S)-2-[(3S,4S)-4-amino-3-methoxy-3-methylpyrrolidin-1-yl]-5,6,7,8-tetrahydroquinolin-6-yl]-3-methylthieno[2,3-b]pyrazine-6-carboxamide] as the compound, how does the IC50 read?
The IC50 was 200 to 2000 nM.

`CO[C@]1(C)CN(c2ccc3c(n2)CC[C@H](NC(=O)c2sc4nc(C)cnc4c2N)C3)C[C@H]1N` [Example 280, 7-amino-N-[(6S)-2-[(3R,4R)-4-amino-3-methoxy-3-methylpyrrolidin-1-yl]-5,6,7,8-tetrahydroquinolin-6-yl]-3-methylthieno[2,3-b]pyrazine-6-carboxamide] was tested. Which IC50 did it give?
The IC50 was 200 to 2000 nM.
